Results: patent US11666558B2, “Methods of treating intraocular pressure with activators of Tie-2” (EyePoint Pharmaceuticals, Inc., priority 2015, dated 2023)
Read-outs that look alike come from different tables or passages of the source.

Experiment: Ocular tissue concentrations (aqueous humor, vitreous humor, iris, retina, choroid, cornea) after topical ocular, subcutaneous and intravitreal administration
Format: in vivo, New Zealand White rabbits
Conditions: for concentration at 0.5 h / concentration at 0.5 hr / concentration at 1 h / concentration at 2 h / concentration at 4 h: subcutaneous, 5 mg/kg/dose; for Cornea Conc. (ng/mL) OS: TABLE 16: Cornea homogenate
Experimental: To measure the concentration of Compound 1 in plasma and ocular tissues following topical ocular, subcutaneous, and intravitreal administration, New Zealand White rabbits were administered Compound 1, and plasma and ocular samples were collected at pre-determined time points. Compound 1 formulations were prepared fresh on each day of dosing.
Ocular tissue samples from both eyes of each animal were collected and weights were recorded. Plasma and ocular tissue sample concentrations of Compound 1 were determined by LC-MS/MS.
New Zealand White rabbits weighing 2.5 to 3.5 kg were used on this study. Rabbits were housed one per cage. Animals were not fasted and only healthy animals with no ocular illness were used. Two rabbits per group were sacrificed at each of four ocular tissue sampling time points for a total of eight rabbits per group.
Animals were anesthetized for ocular (topical) and intravitreal dosing following the 12IA7 IACUC protocol. Each rabbit received a bolus dose of test formulation either via topical ocular administration 3 times daily on Days 1 and 2 (at 0, 6, and 12 hours), and once on Day 3 (at 0 hours) into both eyes; via intravitreal administration into both eyes once on Day 1 (at 0 hours); or via subcutaneous administration 2 times daily on Days 1 and 2 (at 0 and 8 hours) and once daily on Day 3 (at 0 hours). Doses were given within an approximately 1 hour window each day where applicable.
On Day 1, for intravitreal administration, or on Day 3, for topical ocular and subcutaneous administration, at the appropriate ocular tissue collection time points, animals were euthanized and both eyes were enucleated immediately. Following enucleation, each eye was rinsed with phosphate-buffered saline. Ocular tissue samples from both eyes of each animal were collected at predetermined time points and weights were recorded. All the samples were frozen immediately on dry ice, and stored at −60° C. to −80° C. pending bioanalysis.
An LC-MS/MS method was developed for the determination of Compound 1 in rabbit aqueous tissues (plasma, aqueous and vitreous humor) and solid ocular tissue samples. A pre-study standard curve was analyzed to determine the specificity, range, and lower limit of quantitation of the method. Plasma and tissue homogenate study samples were extracted and analyzed. All the samples were treated identically to the standards.
One eight-point standard curve was used in each analytical batch. To be accepted, each batch must have had at least five of eight standards with accuracy within ±20% of nominal, except at the lower limit of quantification (LLOQ), where ±25% was acceptable.
Concentration versus time data is plotted in FIGS. 3-16. All data are expressed as ng/g of the free drug. Samples that were below the limit of quantitation (0.2 ng/mL) were not used in the calculation of averages.

Molecule COC(=O)N[C@@H](Cc1ccccc1)C(=O)N[C@@H](Cc1ccc(NS(=O)(=O)O)cc1)c1csc(-c2cccs2)n1 [Compound 1] has a concentration at 48 h (New Zealand White, rabbit, retina, other: intravitreal, 2.5 mg/eye, Retina, 48 hr, sodium salt, intravitreal 2.5 mg/eye, Group 4, read-out: Retina Avg.) of 72600 ng/g, a concentration at 72 h (New Zealand White, rabbit, retina, other: intravitreal, 2.5 mg/eye, Retina, OD, sodium salt, intravitreal 2.5 mg/eye, Group 4, read-out: Retina Conc. (ng/g) OD) of 8250 ng/g and a concentration at 72 h (New Zealand White, rabbit, retina, other: intravitreal, 2.5 mg/eye, Retina, OS, sodium salt, intravitreal 2.5 mg/eye, Group 4, read-out: Retina Conc. (ng/g) OS) of 4070 ng/g. The concentration at 72 h (New Zealand White, rabbit, retina, other: intravitreal, 2.5 mg/eye, Retina, average, intravitreal 2.5 mg/eye (group 5), read-out: Avg.) was 109000 ng/g, the concentration at 72 h (New Zealand White, rabbit, retina, other: intravitreal, 2.5 mg/eye, Retina, left eye, intravitreal 2.5 mg/eye (group 5), individual animals, read-out: Conc. (ng/g) OS) was 119000 ng/g and the concentration at 72 h (New Zealand White, rabbit, retina, other: intravitreal, 2.5 mg/eye, Retina, right eye, intravitreal 2.5 mg/eye (group 5), individual animals, read-out: Conc. (ng/g) OD) was 109000 ng/g. For the same molecule, the concentration at 72 h (New Zealand White, rabbit, retina, other: intravitreal, 2.5 mg/eye, Retina, sodium salt, intravitreal 2.5 mg/eye, Group 4, read-out: Retina Avg.) was 6060 ng/g, the concentration at 0.5 h (New Zealand White, rabbit, retina, Retina, OD, sodium salt, subcutaneous 5 mg/kg/dose, Group 2, read-out: Retina Conc. (ng/g) OD) was 30.5 ng/g and the concentration at 0.5 hr (New Zealand White, rabbit, retina, Retina, OS, sodium salt, subcutaneous 5 mg/kg/dose, Group 2, read-out: Retina Conc. (ng/g) OS) was 48 ng/g. The concentration at 0.5 h (New Zealand White, rabbit, retina, Retina, free acid, subcutaneous 5 mg/kg/dose, Group 3, read-out: Retina Average) was 38.7 ng/g, the concentration at 0.5 hr (New Zealand White, rabbit, retina, Retina, sodium salt, subcutaneous 5 mg/kg/dose, Group 2, read-out: Retina Average) was 40.5 ng/g and the concentration at 1 h (New Zealand White, rabbit, retina, Retina, 1 hr, OD, free acid, subcutaneous 5 mg/kg/dose, Group 3, read-out: Retina Conc. (ng/g) OD) was 10.4 ng/g. For the same molecule, the concentration at 1 h (New Zealand White, rabbit, retina, Retina, 1 hr, OD, sodium salt, subcutaneous 5 mg/kg/dose, Group 2, read-out: Retina Conc. (ng/g) OD) was 22.4 ng/g, the concentration at 1 h (New Zealand White, rabbit, retina, Retina, 1 hr, OS, free acid, subcutaneous 5 mg/kg/dose, Group 3, read-out: Retina Conc. (ng/g) OS) was 6.93 ng/g and the concentration at 1 h (New Zealand White, rabbit, retina, Retina, 1 hr, OS, sodium salt, subcutaneous 5 mg/kg/dose, Group 2, read-out: Retina Conc. (ng/g) OS) was 43.2 ng/g. The concentration at 1 h (New Zealand White, rabbit, retina, Retina, 1 hr, free acid, subcutaneous 5 mg/kg/dose, Group 3, read-out: Retina Average) was 10.2 ng/g, the concentration at 1 h (New Zealand White, rabbit, retina, Retina, 1 hr, sodium salt, subcutaneous 5 mg/kg/dose, Group 2, read-out: Retina Average) was 32.6 ng/g and the concentration at 2 h (New Zealand White, rabbit, retina, Retina, 2 hr, OD, free acid, subcutaneous 5 mg/kg/dose, Group 3, read-out: Retina Conc. (ng/g) OD) was 6.31 ng/g. It also gave a concentration at 2 h (New Zealand White, rabbit, retina, Retina, 2 hr, OD, sodium salt, subcutaneous 5 mg/kg/dose, Group 2, read-out: Retina Conc. (ng/g) OD) of 15 ng/g, a concentration at 2 h (New Zealand White, rabbit, retina, Retina, 2 hr, OS, free acid, subcutaneous 5 mg/kg/dose, Group 3, read-out: Retina Conc. (ng/g) OS) of 6.93 ng/g and a concentration at 2 h (New Zealand White, rabbit, retina, Retina, 2 hr, OS, sodium salt, subcutaneous 5 mg/kg/dose, Group 2, read-out: Retina Conc. (ng/g) OS) of 17.8 ng/g. It also gave a concentration at 2 h (New Zealand White, rabbit, retina, Retina, 2 hr, free acid, subcutaneous 5 mg/kg/dose, Group 3, read-out: Retina Average) of 10.5 ng/g, a concentration at 2 h (New Zealand White, rabbit, retina, Retina, 2 hr, sodium salt, subcutaneous 5 mg/kg/dose, Group 2, read-out: Retina Average) of 16.4 ng/g and a concentration at 4 h (New Zealand White, rabbit, retina, Retina, 4 hr, OD, sodium salt, subcutaneous 5 mg/kg/dose, Group 2, read-out: Retina Conc. (ng/g) OD) of 19.7 ng/g. The concentration at 4 h (New Zealand White, rabbit, retina, Retina, 4 hr, free acid, subcutaneous 5 mg/kg/dose, Group 3, read-out: Retina Average) was 35.3 ng/g, the concentration at 4 h (New Zealand White, rabbit, retina, Retina, 4 hr, sodium salt, subcutaneous 5 mg/kg/dose, Group 2, read-out: Retina Average) was 19.7 ng/g and the concentration at 0.5 h (New Zealand White, rabbit, retina, TABLE 16: Retina, free acid, subcutaneous 5 mg/kg/dose, Group 3, read-out: Retina Average) was 38.7 ng/g. The concentration at 1 h (New Zealand White, rabbit, retina, TABLE 16: Retina, 1 hr, OD, free acid, subcutaneous 5 mg/kg/dose, Group 3, read-out: Retina Conc. (ng/g) OD) was 10.4 ng/g, the concentration at 1 h (New Zealand White, rabbit, retina, TABLE 16: Retina, 1 hr, OS, free acid, subcutaneous 5 mg/kg/dose, Group 3, read-out: Retina Conc. (ng/g) OS) was 6.93 ng/g and the concentration at 1 h (New Zealand White, rabbit, retina, TABLE 16: Retina, 1 hr, free acid, subcutaneous 5 mg/kg/dose, Group 3, read-out: Retina Average) was 10.2 ng/g. It also gave a concentration at 2 h (New Zealand White, rabbit, retina, TABLE 16: Retina, 2 hr, OD, free acid, subcutaneous 5 mg/kg/dose, Group 3, read-out: Retina Conc. (ng/g) OD) of 6.31 ng/g, a concentration at 2 h (New Zealand White, rabbit, retina, TABLE 16: Retina, 2 hr, OS, free acid, subcutaneous 5 mg/kg/dose, Group 3, read-out: Retina Conc. (ng/g) OS) of 6.93 ng/g and a concentration at 2 h (New Zealand White, rabbit, retina, TABLE 16: Retina, 2 hr, free acid, subcutaneous 5 mg/kg/dose, Group 3, read-out: Retina Average) of 10.5 ng/g. For the same molecule, the concentration at 4 h (New Zealand White, rabbit, retina, TABLE 16: Retina, 4 hr, free acid, subcutaneous 5 mg/kg/dose, Group 3, read-out: Retina Average) was 35.3 ng/g, the “Retina Conc. (ng/mL) OD” value (Retina homogenate, 4 hr, OD, free acid, subcutaneous 5 mg/kg/dose, Group 3) was “BLOQ (Below the limit of quantitation (0.5 ng/mL))” and the “Retina Conc. (ng/mL) OS” value (Retina homogenate, 4 hr, OS, sodium salt, subcutaneous 5 mg/kg/dose, Group 2) was “BLOQ (Below the limit of quantitation (0.5 ng/mL))”. For the same molecule, the “Cornea Conc. (ng/mL) OS” value (1 hr, OS, free acid, subcutaneous 5 mg/kg/dose, Group 3) was “BLOQ (Below the limit of quantitation (0.5 ng/mL))”, the “Cornea Conc. (ng/mL) OS” value (2 hr, OS, free acid, subcutaneous 5 mg/kg/dose, Group 3) was “BLOQ (Below the limit of quantitation (0.5 ng/mL))” and the “Retina Conc. (ng/mL) OD” value (TABLE 16: Retina homogenate, 4 hr, OD, free acid, subcutaneous 5 mg/kg/dose, Group 3) was “BLOQ (Below the limit of quantitation (0.5 ng/mL))”. For the same molecule, the “rank order of exposure in aqueous and vitreous humor by route” value (intravitreal, topical ocular, subcutaneous administration) was “intravitreal>>topical ocular>subcutaneous administration”.
